Test results published in US7387788B1 (priority 2003, dated 2008).

Tests used:
[1] = In vitro skin permeation, Franz cells, frozen human abdominal skin; assay type: in vitro ADME; conditions: Example 7
Protocol: Percutaneous absorption was measured using the in vitro cadaver skin finite dose technique. Cryo-preserved, human cadaver trunk skin was obtained from a skin bank and stored in water-impermeable plastic bags at <−70° C. until used.
Briefly, skin samples were prepared as follows.
The dermal cell was filled with receptor solution.
Experiments were performed under non-occlusive conditions.
Analysis of the samples was performed by HPLC.
Twenty-five micro liters of sample were injected.
Formulations 7.1 and 7.3 were made essentially as described above in the Materials and Methods. Formulation 7.1 and 7.2 are identical, but formulation 7.1 was tested on pig ear skin, and formulation 7.2 was tested on frozen human abdominal skin. Formulation 7.3 (Reference marketed product) was also tested on frozen human abdominal skin. Permeation studies used Franz cells as described in the Materials and Methods.
Individual gel amounts applied to tested skin samples were approximately 10 mg. Studies were performed according to OECD (Organization for Economic Cooperation and Development) guidelines (Organization for Economic Co-operation and Development (OECD), Environment Directorate. “Guidance document for the conduct of skin absorption studies,” OECD series on testing and assessment, No. 28. Paris, version 5 Mar. 2004).

[2] = cited from earlier work
[3] = In vitro skin permeation, Franz cells, finite dose, non-occlusive, pig ear skin; conditions: topical or ocular, 10 mg, pH 7.4
Protocol: A finite dose (for example: 4-7 mg/cm^2) of formulation is applied to the outer surface of the skin and drug absorption is measured by monitoring its rate of appearance in the receptor solution bathing the inner surface of the skin. Data defining total absorption, rate of absorption, as well as skin content can be accurately determined in this model.
Pig skin can be prepared essentially as described below for human skin.
Prior to the experiment, skin was removed from the bag, placed in water (approximately 37° C.) for five minutes, and then cut into sections large enough to fit on 1 cm^2 Franz Cells (Crown Glass Co., Somerville, N.J.). Briefly, skin samples were prepared as follows. A small volume of phosphate buffered saline (PBS) was used to cover the bottom of the Petri dishes. Skin disks generally depleted of fat layers were placed in the Petri dishes for hydration. A Stadie-Riggs manual tissue microtome was used for slicing excised skin samples. Approximately 2 mL of PBS was placed into the middle cavity of the microtome as slicing lubricant. Skin disks were placed, dermal side up, into the middle cavity of the microtome. Filter paper was soaked with PBS, inserted in the cavity just above the skin disk. The filter paper prevented the dermis from sliding onto the top of the cutting block and helped to insure more precise cutting. […]

[4] = in an alcohol/water solvent; cited from earlier work
[5] = oral administration; cited from earlier work

| SMILES | change of transdermal in vitro bioavailability, frozen human skin versus fresh pig skin ([1]; p=0.009) [%] | bioavailability at 16 h, 1.5 % FBE ([1]; topical or ocular, 10 mg, pH 7.4, frozen human skin, gel of Table 13 (formulation 7.2)) [%] | Oral bioavailability [2] | bioavailability at 16 h, 1.5 % FBE [3] [%] | apparent pKa of nicotine [4] | fraction of the drug absorbed when administered orally [5] |
| --- | --- | --- | --- | --- | --- | --- |
| CN1CCC[C@H]1c1cccnc1 [nicotine, 1-methyl-2-(3-pyridyl)pyrrolidone] | −52 | 18 | about 30% | 38 | 7.7 | – |
| NCCCC(O)(P(=O)(O)O)P(=O)(O)O [sodium alendronate] | – | – | – | – | – | about 0.6% |
